{"source": "patent US20240316043A1", "about": "“BROMODOMAIN INHIBITORS FOR CANCER THERAPY” (University of Tennessee Research Foundation, priority 2023, published 2024)", "key": {"[1]": {"test_system": "MT330 GBM cells", "assay": "Cell death ELISA in MT330 GBM cells", "assay_type": "cell-based", "conditions": "for enhancement of TMZ-induced cell death: 10 mM inhibitor in combination with 200 mM of TMZ", "method": "Control cells were treated with vehicle (DMSO). Cell death was determined at 72 hr after treatment by a cell death ELISA that quantifies histone-complexed DNA fragments. […]\nParental and BRG1 knockout MT330 cells were treated with bleomycin (0.01 μM) and bromodomain inhibitors […]. After 72 hr, cell death was determined by cell death ELISA.\nThe biological activity of bromodomain inhibitors was assessed for the ability to enhance TMZ-induced cell death. In brief, MT330 cells were treated with […] of bromodomain inhibitors alone, or in combination with […] of TMZ for 72 hrs, and GBM cell death was determined by a commercial ELISA."}, "[2]": {"test_system": "LN229 GBM cells", "assay": "γH2Ax immunostaining after TMZ", "assay_type": "cell-based", "set-up": "dose or concentration left out as unconfirmed", "conditions": "24 hrs, FIG. 11", "method": "After treatment for 24 hrs, cells were fixed and immunostained for gH2Ax. Analysis of immunostaining was performed on a laser confocal microscope.\nAs TMZ is DNA damaging agent, we tested the ability of various bromodomain inhibitors to enhance TMZ-induced DNA damage as evidence by immunostaining of GBM cells with γH2Ax and examination of the staining on a confocal microscope. γH2AX is the phosphorylated version of the histone variant H2Ax and is a highly specific and sensitive marker for monitoring DNA damage initiation and resolution. […] Similar results were obtained with MT330 GBM cells."}, "[3]": {"test_system": "TMZ-sensitive GBM cells and TMZ-resistant GBM cells", "conditions": "cited from earlier work"}, "[4]": {"test_system": "MT330 cells", "assay": "γH2Ax immunostaining after bleomycin", "assay_type": "cell-based", "conditions": "FIG. 8", "method": "After 1 hr of bleomycin treatment cell death, cells were fixed and immunostained for γH2Ax. Analysis of immunostaining was performed on at least 1,000 cells on the Lionheart FX imaging system.\nBleomycin is a chemotherapeutic drug that is used to treat various cancers. […] Thus, the ability of bleomycin to induce DNA damage as evidence by immunostaining of MT330 cells and LN229 with γH2Ax was tested. Quantification of cell staining was determined on the Lionheart FX imaging station."}, "[5]": {"test_system": "12 primary human cell based systems", "conditions": "cited from earlier work"}, "[6]": {"molecular_target": "BRG1/BRM", "conditions": "cited from earlier work"}, "[7]": {"test_system": "GBM tumors", "conditions": "intracranial GBM animal model; cited from earlier work"}, "[8]": {"test_system": "intracranial GBM xenografts (MT330 cells)", "assay": "Orthotopic GBM model, MT330 cells injected into brains of NSG mice", "assay_type": "in vivo", "conditions": "combination with TMZ (10 mg/Kg), IV-255 or IV-275 (20 mg/Kg) IP 3 times per week, 3-4 weeks after treatment, versus either agent alone, FIG. 10", "method": "MT330 cells (10^6) were injected into the brains of NSG female mice. After tumors were identified by BLI (˜10 days post-injection), mice were IP injected with TMZ (60 mg/Kg body weight) or IV-129 (10 mg/Kg) alone or in combination 3 times per week (5 mice per group) for 2 weeks. […] FIG. 5C Kaplan-Meier analysis of the survival data (5 mice/group) of the brain tumor-bearing mice was performed.\nMT330 cells […] were injected into the brains of NSG female mice. After tumors were identified by BLI (˜10 days post-injection), mice were IP injected with TMZ (10 mg/Kg body weight), IV-255 or IV-275 (20 mg/Kg) alone or in combination 3 times per week (5 mice/group).\nLuciferase-expressing MT330 cells were injected into the brains of immunocompromised NSG mice. Once tumors were identified by bioluminescence imaging (BLI) at ˜10 days after tumor cell injection, mice were subjected to intraperitoneal injection of TMZ or YH-IV-129 alone, or in combination. At 20 days after initiation of treatment, live animal imaging was performed on an IVIS Lumina instrument. […] The mean survival of control mice was 27 days after cell injection (FIG. 5C).\nLuciferase-expressing MT330 cells were injected into the brains of immunocompromised NSG mice. Once tumors were identified by bioluminescence imaging (BLI) at ˜10 days after tumor cell injection, mice were subjected to intraperitoneal injection of TMZ or YH-IV-255 or YH-IV-275 alone, or in combination. […] This is compelling preliminary evidence that these two new compounds have potent anticancer activity in intracranial GBM xenografts when combined with standard-of-care TMZ chemotherapy and that these drugs cross the blood-brain barrier."}, "[9]": {"test_system": "BRG1 knockout MT330 cells", "assay": "Cell death ELISA in BRG1 knockout MT330 cells", "assay_type": "cell-based", "conditions": "72 hr", "method": "(§1) BRG1 and BRM knockout MT330 cells were treated with TMZ (500 μM) and bromodomain inhibitors (10 μM). After 72 hr, cell death was determined by a cell death ELISA.\nParental and BRG1 knockout MT330 cells were treated with bleomycin (0.01 μM) and bromodomain inhibitors (10 μM). After 72 hr, cell death was determined by cell death ELISA.\n(§2) To further characterize the specificity of YH-IV-255 for the BRG1 bromodomain, GBM cell lines were generated with either BRG1 or BRM knocked out by CRISPR/Cas9 gene editing.^14 These cells were isolated by puromycin selection and the knockout of the either subunit was validated by immunoblotting."}, "[10]": {"test_system": "BRM knockout MT330 cells", "assay": "Cell death ELISA in BRM knockout MT330 cells", "assay_type": "cell-based", "conditions": "TMZ (500 μM) and bromodomain inhibitors (10 μM), 72 hr, FIG. 7", "method": "as §1, §2"}, "[11]": {"molecular_target": "T1, BRG1 bromodomain (Homo sapiens, UniProt P51532)", "T1 construct": "expressed in transfected cells; host or cells: MT330 glioblastoma cells", "T1 sequence (P51532 1453-1564 limits assumed)": "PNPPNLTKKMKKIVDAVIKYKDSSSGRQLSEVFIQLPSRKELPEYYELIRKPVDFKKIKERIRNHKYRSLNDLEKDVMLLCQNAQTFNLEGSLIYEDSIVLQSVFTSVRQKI", "assay": "Cellular thermal shift assay (CETSA), BRG1 bromodomain construct in MT330 cells", "assay_type": "binding", "set-up": "binding to the BRG1 BRD: dose or concentration left out as unconfirmed", "conditions": "for selectivity BRG1 versus BRM bromodomain: conclusion from CETSA and knockout cells", "method": "After heating over a temperature range from 44.5° C. to 55.6° C. for 5 min, the cells were lysed, placed on ice at 4° C. and then immunoblotted for BRG1 or actin.\n(§3) For the CETSA, MT330 cells expressing the BRM (FIG. 6B), or BRG1 (FIG. 6C) the BRD construct were treated with bromodomain inhibitors […] and immunoblotted as indicated.\n(§4) After heating over a temperature range from 44.5° C. to 55.6° C. for 5 min, MT330 cells were lysed and then immunoblotted for BRG1 or BRM."}, "[12]": {"test_system": "MT330 GBM cells", "assay": "Cell death ELISA in MT330 GBM cells", "assay_type": "cell-based", "conditions": "TMZ (500 μM) and bromodomain inhibitors (10 μM), 24 hr, FIG. 6A"}, "[13]": {"molecular_target": "T2, BRM bromodomain (Homo sapiens, UniProt P51531)", "T2 construct": "expressed in transfected cells; host or cells: MT330 glioblastoma cells", "T2 sequence (P51531 1378-1506 limits assumed)": "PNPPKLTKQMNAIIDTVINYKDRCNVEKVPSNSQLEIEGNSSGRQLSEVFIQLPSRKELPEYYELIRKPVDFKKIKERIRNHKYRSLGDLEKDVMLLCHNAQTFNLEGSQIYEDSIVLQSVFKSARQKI", "assay": "Cellular thermal shift assay (CETSA), BRM bromodomain construct in MT330 cells", "assay_type": "binding", "set-up": "binding to the BRM BRD: dose or concentration left out as unconfirmed", "conditions": "CETSA, FIG. 6B", "method": "as §3, §4"}}, "note": "Entries after “also recorded” stand apart in the source; their conditions may differ.", "data": [{"molecule": "O=C(/C=C/N1C[C@H]2C[C@@H]1CN2c1ccccn1)c1ccccc1O", "note": "[PFI-3]", "values": [{"measurement": "enhancement of TMZ-induced cell death", "setting": "[1]; 72 hrs, FIG. 1", "value": "markedly increased the sensitivity of GBM cells to TMZ-induced cell death"}, {"measurement": "cell death, inhibitor alone", "setting": "[1]; 10 mM of bromodomain inhibitors alone, 72 hrs, FIG. 1", "value": "did not induce cell death"}, {"measurement": "γH2Ax staining, inhibitor with TMZ", "setting": "[2]", "value": "marked increase in γH2Ax staining"}, {"measurement": "enhancement of antiproliferation activity and cell death-inducing effects of TMZ", "setting": "[3]", "value": "enhanced the antiproliferation activity and cell death-inducing effects of temozolomide"}, {"measurement": "γH2Ax staining, PFI-3 alone", "setting": "[4]; PFI-3 (5 μM) alone", "value": "no effect on γH2Ax staining"}, {"measurement": "γH2Ax staining, PFI-3 pretreatment followed by bleomycin", "setting": "[4]; pretreated for 1 hr with PFI-3 (5 μM) followed by bleomycin (0.5 and 2 μM)", "value": "increased number of both γH2Ax positive cells and signal intensity of staining; also recorded: sensitized GBM cells to DNA damage induced by Bleomycin"}, {"measurement": "inhibitory effects against a range of cellular endpoints", "setting": "[5]", "value": "inhibitory effects were not observed"}, {"measurement": "Kd", "setting": "[6]", "value": "< 100", "unit": "nM"}, {"measurement": "survival of animals bearing GBM tumors treated with TMZ", "setting": "[7]", "value": "increase in survival"}]}, {"molecule": "COc1ccc(N2C[C@H]3C[C@@H]2CN3C(=O)Nc2ccc(F)c(F)c2)cc1", "note": "[YH-IV-255, (1R,4R)-N-(3,4-difluorophenyl)-5-(4-methoxyphenyl)-2,5-diazabicyclo[2.2.1]heptane-2-carboxamide]", "values": [{"measurement": "enhancement of TMZ-induced cell death", "setting": "[1]; 72 hrs, FIG. 1", "value": "better efficacy than PFI-3; also recorded: somewhat more bioactive than YH-IV-129; also recorded: markedly enhanced TMZ sensitivity of GBM cells in vitro as compared to PFI-3"}, {"measurement": "enhancement of bleomycin-induced cell death", "setting": "[1]; bleomycin (0.01 μM) and bromodomain inhibitors (10 μM), 72 hr, FIG. 9", "value": "sensitized GBM cells to bleomycin-induced cell death"}, {"measurement": "cell death, inhibitor alone", "setting": "[1]; bromodomain inhibitors (10 μM) alone, 72 hr, FIG. 9", "value": "none of the bromodomain inhibitors (YH-IV-129, YH-IV-255 and YH-IV-275) alone had any death inducing activity"}, {"measurement": "bioluminescent signal in the brain", "setting": "[8]", "value": "decreased the bioluminescent signal in the brain"}, {"measurement": "γH2Ax staining, inhibitor with TMZ", "setting": "[2]", "value": "marked increase in γH2Ax staining"}, {"measurement": "enhancement of TMZ-induced cell death", "setting": "[9]; TMZ (500 μM) and bromodomain inhibitors (10 μM), FIG. 7", "value": "no such activity in BRG1 knockout GBM cells; also recorded: not BRG1 knockout cells"}, {"measurement": "enhancement of bleomycin-induced cell death", "setting": "[9]; bleomycin (0.01 μM) and bromodomain inhibitors (10 μM), FIG. 9", "value": "ablated in BRG1 knockout MT330 cells"}, {"measurement": "enhancement of TMZ-induced cell death", "setting": "[10]", "value": "very similar activity in enhancing the cell death inducing activity in BRM knockout GBM cells; also recorded: sensitized BRM knockout GBM cells"}, {"measurement": "binding to the BRG1 BRD", "setting": "[11]; CETSA, FIG. 6C", "value": "bind equivalently to the BRG1 BRD"}, {"measurement": "selectivity BRG1 versus BRM bromodomain", "setting": "[11]", "value": "selective BRG1 bromodomain inhibitor; also recorded: selective inhibitor the BRG-1 bromodomain"}, {"measurement": "selectivity BRG1 versus BRM bromodomain", "setting": "[11]; listed as IV-255", "value": "binds selectively to the BRG1 BRD"}, {"measurement": "TMZ sensitivity (TMZ-induced cell death)", "setting": "[12]", "value": "similarly increase the TMZ sensitivity of GBM cells"}, {"measurement": "TMZ sensitivity (TMZ-induced cell death)", "setting": "[12]; listed as IV-255", "value": "potent sensitizer to TMZ-induced cell death"}, {"measurement": "binding to the BRM BRD", "setting": "[13]", "value": "does not bind"}]}]}
